Test results taken from US20260115185A1, “QUINOLINE DERIVATIVES WHICH ACT AS KAPPA-OPIOID RECEPTOR ANTAGONISTS” (The Scripps Research Institute, priority 2023, published 2026).

Legend:
mu opioid receptor (MOR) = molecular target: T1, mu opioid receptor (MOR) (Homo sapiens, UniProt P35372); test: OPRMu1 Discover X β-arrestin Assay, antagonist mode (U2OS cells, DAMGO EC80 challenge); assay type: cell-based
T1 construct: host or cells: U2OS (Discover X OPRMu1-U2OS, PathHunter)
Procedure, shortened: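 PathHunter U2OS cells with β-gal fragment-complementation readout for β-arrestin recruitment to OPRMu1. Cells were preincubated with compound (10-point, 1:3 series from nominal 10 micromolar) for 30 min at 37 °C, then challenged with 303 nM DAMGO (EC80) for 3 h. Luminescence gave percent inhibition.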

[1] = molecular target: T2, kappa opioid receptor (KOR) (Homo sapiens, UniProt P41145); test: OPRKappa 1 Tango B-Arrestin Assay, antagonist mode (Tango OPRK1-bla U2OS cells, U50488 EC80 challenge); assay type: cell-based; conditions: for Selectivity (MOR/KOR): Kappa selectivity, MOR IC50 / KOR IC50; for IC50: antagonist mode, Tango OPRK1-bla U2OS cells, 6 nM U50488 challenge
T2 construct: host or cells: U2OS (Tango OPRK1-bla U2OS)
T2 sequence (P41145 whole entry): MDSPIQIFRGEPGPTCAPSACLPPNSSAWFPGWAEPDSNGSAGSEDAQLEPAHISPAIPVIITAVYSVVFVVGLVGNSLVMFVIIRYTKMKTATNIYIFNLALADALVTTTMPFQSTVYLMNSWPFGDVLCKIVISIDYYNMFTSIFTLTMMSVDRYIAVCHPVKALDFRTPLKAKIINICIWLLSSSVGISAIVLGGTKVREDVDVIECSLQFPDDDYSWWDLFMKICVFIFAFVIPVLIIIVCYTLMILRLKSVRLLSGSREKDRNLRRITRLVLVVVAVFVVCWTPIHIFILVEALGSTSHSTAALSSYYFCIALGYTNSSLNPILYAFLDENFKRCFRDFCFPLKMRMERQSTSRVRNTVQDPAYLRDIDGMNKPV
Procedure, shortened: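 Tango OPRK1-bla U2OS cells, β-arrestin recruitment read as β-lactamase FRET (CCF4-AM, 460/590 nm emission). Compounds, 10-point 1:3 series from nominal 10 µM in quadruplicate, preincubated 30 min at 37 °C, then challenged with U50488 at 6 nM final (EC80) for 4 h; percent inhibition from median ratio.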

T1 sequence (P35372 whole entry): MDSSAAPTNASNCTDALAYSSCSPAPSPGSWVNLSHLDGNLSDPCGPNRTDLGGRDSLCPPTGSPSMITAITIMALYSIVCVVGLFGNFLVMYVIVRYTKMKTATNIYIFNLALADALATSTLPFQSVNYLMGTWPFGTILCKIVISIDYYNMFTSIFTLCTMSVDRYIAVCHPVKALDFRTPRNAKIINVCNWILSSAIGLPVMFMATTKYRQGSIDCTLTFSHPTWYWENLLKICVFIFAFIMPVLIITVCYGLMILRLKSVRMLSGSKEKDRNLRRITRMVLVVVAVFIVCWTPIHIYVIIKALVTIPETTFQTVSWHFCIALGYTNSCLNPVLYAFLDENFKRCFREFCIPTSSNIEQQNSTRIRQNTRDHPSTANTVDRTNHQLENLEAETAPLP

Row | SMILES | IC50 (mu opioid receptor (MOR)) [nM] | IC50 [1] [nM] | Selectivity (MOR/KOR) [1]
1 | CCc1cc(F)c2nc(N3CCN(C(=O)[C@H](C)N(CC)CC)C[C@H]3C)c(-c3cc(C)no3)c(C)c2c1 [Compound 164] | > 1000 | 10 to 100 | +++ (between 100- to 1000-fold selective)
2 | CCc1cc(F)c2nc(N3CCN(C(=O)[C@H](C)N4CCCC4)C[C@H]3C)c(-c3nc(C)no3)c(C)c2c1 [Compound 201] | 100 to 1000 | 1 to 10 | +++ (between 100- to 1000-fold selective)
3 | CCc1cc(F)c2nc(N3CCN(C4CC5(CCOCC5)C4)C[C@H]3C)c(-c3nc(C)no3)c(C)c2c1 [Compound 42] | > 1000 | 10 to 100 | +++ (between 100- to 1000-fold selective)
4 | CCc1cc(F)c2nc(N3CCN(C(=O)C(C)(C)N4CCCC4)C[C@H]3C)c(-c3cc(C)no3)c(C)c2c1 [Compound 179] | > 1000 | 10 to 100 | ++ (between 10- and 100-fold selectivity)
5 | CCc1cc(F)c2nc(N3CCN(C(=O)[C@@H]4C[C@@H](O)CN4C)C[C@H]3C)c(-c3cc(C)no3)c(C)c2c1 [Compound 167] | > 1000 | 1 to 10 | +++ (between 100- to 1000-fold selective)
6 | CCc1cc(F)c2nc(N3CCN(C(=O)[C@H](C(C)C)N4CCCC4)C[C@H]3C)c(-c3nc(C)no3)c(C)c2c1 [Compound 152] | > 1000 | 1 to 10 | +++ (between 100- to 1000-fold selective)
7 | CCc1cc(F)c2nc(N3CCN(C(=O)[C@H](C)N(CC)CC)C[C@H]3C)c(-c3nc(C)no3)c(C)c2c1 [Compound 158] | > 1000 | 1 to 10 | ++++ (more than 1000-fold selectivity over MOR)

The next lines start with results.

Row | IC50 (mu opioid receptor (MOR)) [nM] | IC50 [1] [nM] | SMILES | Selectivity (MOR/KOR) [1]
8 | > 1000 | ≥ 100 | CCc1cc(-c2ccnn2C)c2nc(N3CCN(CC4CC(F)(F)C4)C[C@H]3C)c(-c3ccn(C)n3)c(C)c2c1 [Compound 61] | ++ (between 10- and 100-fold selectivity)
9 | > 1000 | ≥ 100 | CCc1cc(-c2ccnn2C)c2nc(N3CCC(N)CC3)c(-c3ccn(C)n3)c(C)c2c1 [Compound 23, 1-(6-ethyl-4-methyl-3-(1-methyl-1H-pyrazol-3-yl)-8-(1-methyl-1H-pyrazol-5-yl)quinolin-2-yl)piperidin-4-amine] | + (less than 10-fold selectivity)
10 | > 1000 | 10 to 100 | CCc1cc(F)c2nc(N3CC[C@H]4[C@H](CCN4C[C@@H]4CCCOC4)C3)c(-c3ccn(C)n3)c(C)c2c1 [Compound 130] | ++ (between 10- and 100-fold selectivity)
11 | > 1000 | < 1 | CCc1cc(-c2ccn(C)n2)c2nc(N3CCC(N[C@H]4CCOC[C@@H]4F)CC3)c(-c3nc(C)no3)c(C)c2c1 [Compound 102] | ++++ (more than 1000-fold selectivity over MOR)
12 | > 1000 | 1 to 10 | CCc1cc(F)c2nc(N3CC[C@H](N[C@@H]4CCCOC4)[C@@H](C)C3)c(-c3ccn(C)n3)c(C)c2c1 [Compound 112] | +++ (between 100- to 1000-fold selective)
13 | > 1000 | 10 to 100 | CCc1cc(F)c2nc(N3CC[C@@H]4[C@@H](CCN4[C@@H]4CCOC4)C3)c(-c3ccn(C)n3)c(C)c2c1 [Compound 123] | +++ (between 100- to 1000-fold selective)
14 | 100 to 1000 | 1 to 10 | CCc1cc(F)c2nc(N3CC[C@H](N[C@@H]4CCOC4)C[C@@H]3C)c(-c3ccn(C)n3)c(C)c2c1 [Compound 117] | +++ (between 100- to 1000-fold selective)
15 | > 1000 | 10 to 100 | CCc1cc(F)c2nc(N3CC[C@@H]4[C@@H](CCN4[C@@H]4CCCOC4)C3)c(-c3ccn(C)n3)c(C)c2c1 [Compound 124] | +++ (between 100- to 1000-fold selective)
16 | > 1000 | 10 to 100 | CCc1cc(F)c2nc(N3CCN(C(=O)[C@@H](C)N(CC)CC)C[C@H]3C)c(-c3ccn(C)n3)c(C)c2c1 [Compound 170] | +++ (between 100- to 1000-fold selective)
